Blank lines part the entries; values can stand above or below the molecule they belong to.
Columns and labels:
[1] = target: T1, E. coli β-galactosidase (LacZ) (Escherichia coli, UniProt P00722); details: Huang, 1991, cited from earlier work
[2] = target: T1, E. coli β-galactosidase (LacZ); format: biochemical
Protocol: In the enzyme inhibition assay, the rate of catalysis is determined by using a non-fluorescent substrate for LacZ, fluorescein mono-β-D-galactoside (FMG) (FMG), and measuring the appearance of the fluorescent product, fluorescein (excitation 488 nm, emission 514 nm). All components of the LacZ inhibition assay are dissolved in assay buffer (10 mm MgCl2, 50 mM NaCl, 1 mM DTT, 100 μg/ml BSA, 10 mM Tris-HCl, pH 7.9.
Leading into each droplet forming module (FIG. 15) are two Teflon tubes leading from syringe pumps. The channels leading from each tube merge to create a single flow before entering the droplet forming module. The two syringes feeding into the first droplet forming module contain, (a) 50 μM PETG in assay buffer, and (b), assay buffer. The two syringes feeding into the second droplet forming module contain, (c) 100 nM LacZ in assay buffer and (d), assay buffer. The two syringes feeding into the third droplet forming module contain, (e) 5 mM FMG in assay buffer, and (f), assay buffer. The final concentration of each component in each droplet is independently controllable by adjusting relative flow rates of each component and buffer solution while maintaining a constant combined flow rate from both syringes.
The first droplet fusion mixes the inhibitor (PETG) with the enzyme (LacZ). After the combined droplet has spent two minutes in a delay line it is fused with a third droplet containing the fluorogenic enzyme substrate (FMG). Finally, after all the components are mixed the reaction is observed by measuring fluorescence of individual droplets or by integrating fluorescent light from droplets with the same concentration of each component during 10-second exposure time at multiple points in the second 10 min long delay line. Each fluorescence intensity value at different positions is proportional to the amount of product at different reaction times. Rate of product formation is linear during initial reaction time and initial rate (ν) can be determined from linear fitting. […]

[3] = Compartmentalisation of small molecules in water-in-fluorocarbon emulsions (epifluorescence microscopy); format: physicochemical; details: water-in-perfluorooctyl bromide emulsions mixed by vortexing, imaged after 24 hours
Protocol: FIG. 19. Compartmentalisation of small molecules in water-in-fluorocarbon emulsions. Water-in-perfluorooctyl bromide emulsions were made containing texas red (1 mM) and calcein ([…] in the aqueous phase by homogenisation as described in example 9. The two emulsions were mixed by vortexing and imaged by epifluorescence microscopy after 24 hours. No exchange of texas-red (red fluorescence) and calcein (green fluorescence) between microdroplets could be observed.
Water-in-fluorocarbon emulsions containing 95% (v/v) perfluorooctyl bromide, 5% (v/v) phosphate buffered saline containing the molecule of interest in solution, and 2% (w/v) C8F17C11H22OP(O)[N(CH2CH2)2O]2 (F8H1DMP) as surfactant were formed essentially as (Sadtler et al., 1996) by extrusion (15 times) through 14 μm filters (Osmonics) or by homogenising for 5 min at 25,000 r.p.m. using an Ultra-Turrax T8 Homogenizer (IKA) with a 5 mm dispersing tool. Emulsions were made containing a series of small fluorescent molecules dissolved in the aqueous phase at concentrations from […] to 2 mM. These molecules, including calcein, texas red, fluorescein, coumarin 102, 7-hydroxycoumarin-3-carboxylic acid and 7-diethylamino-4-methyl coumarin (coumarin 1), had molecular weights from 203 to 625 Da and Log P values—calculated using SRC's Log Kow/KowWin Program (Meylan and Howard, 1995)—ranging from −0.49 to 4.09. […]

[4] = target: T2, PTP1B (Homo sapiens, UniProt P18031); details: Johnson et al., 2002; cited from earlier work
T2 sequence (P18031 1-435): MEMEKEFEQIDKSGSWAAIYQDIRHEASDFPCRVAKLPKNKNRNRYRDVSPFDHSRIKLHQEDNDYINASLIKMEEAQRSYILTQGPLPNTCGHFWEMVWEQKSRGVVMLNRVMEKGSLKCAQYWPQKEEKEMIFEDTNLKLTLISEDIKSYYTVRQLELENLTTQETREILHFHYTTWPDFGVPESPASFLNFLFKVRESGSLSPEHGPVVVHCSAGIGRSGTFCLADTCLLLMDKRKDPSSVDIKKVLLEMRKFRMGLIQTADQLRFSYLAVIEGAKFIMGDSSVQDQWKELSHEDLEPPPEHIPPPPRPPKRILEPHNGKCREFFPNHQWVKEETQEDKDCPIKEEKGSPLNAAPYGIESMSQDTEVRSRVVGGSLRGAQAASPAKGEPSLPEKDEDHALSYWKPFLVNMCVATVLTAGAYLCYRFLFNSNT

[5] = target: T3, human recombinant PTP1B, residues 1-322 (Homo sapiens, UniProt P18031); assay: Screening for PTP1B inhibitors using microcapsules in a microfluidic system (DiFMUP fluorescence); format: biochemical; details: 100 μM compound solution, PTP1B 50 mU/ml, substrate DiFMUP, excitation/emission 358/452 nm
T3 construct: human recombinant PTP1B, residues 1-322; purchased Biomol Research Laboratories, Inc
T3 sequence (P18031 1-322): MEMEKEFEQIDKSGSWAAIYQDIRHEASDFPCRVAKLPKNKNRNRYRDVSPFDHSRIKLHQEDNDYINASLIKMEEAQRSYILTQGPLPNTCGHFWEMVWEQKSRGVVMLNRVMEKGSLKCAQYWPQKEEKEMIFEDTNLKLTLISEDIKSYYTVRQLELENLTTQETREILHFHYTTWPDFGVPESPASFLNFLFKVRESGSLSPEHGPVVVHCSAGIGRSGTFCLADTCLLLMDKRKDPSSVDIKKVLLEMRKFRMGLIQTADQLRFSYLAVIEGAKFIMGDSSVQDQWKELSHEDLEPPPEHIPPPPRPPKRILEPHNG
Protocol: All water-soluble reagents are dissolved in (25 mM HEPES, pH 7.4, 125 mM NaCl, 1 mM EDTA), a buffer compatible with PTP1B activity. […] Each microcapsule containing target enzyme is fused with a microcapsule containing compound 2 or a microcapsule containing hydrocinnamic acid. Microcapsules containing either compound 2 or hydrocinnamic acid can be formed by switching between injection with syringes containing compound 2 and hydrocinnamic acid.
After microcapsule fusion the contents are rapidly mixed. After this point the microcapsules are run for up to 1 min through a 60 cm long microchannel (to allow inhibitor binding). This microchannel is then merged with a second microchannel containing, aqueous microcapsules containing the fluorogenic PTP1B substrate 6,8-difluoro-4-methylumbelliferyl phosphate (DiFMUP) (Molecular Probes) in 25 mM HEPES, pH 7.4, 125 mM NaCl, 1 mM EDTA and the microcapsules fused pairwise. The fused microcapsules are then run for up to 2 min through a 60 cm long microchannel. Fluorescence of the microcapsules due to production of DiFMU (excitation/emmission maxima 358/452 nm; blue fluorescence) is measured.

[6] = 30 nM LacZ, 0 to 13 μM PETG, 10 to 700 μM FMG

T1 sequence (P00722 2-1024): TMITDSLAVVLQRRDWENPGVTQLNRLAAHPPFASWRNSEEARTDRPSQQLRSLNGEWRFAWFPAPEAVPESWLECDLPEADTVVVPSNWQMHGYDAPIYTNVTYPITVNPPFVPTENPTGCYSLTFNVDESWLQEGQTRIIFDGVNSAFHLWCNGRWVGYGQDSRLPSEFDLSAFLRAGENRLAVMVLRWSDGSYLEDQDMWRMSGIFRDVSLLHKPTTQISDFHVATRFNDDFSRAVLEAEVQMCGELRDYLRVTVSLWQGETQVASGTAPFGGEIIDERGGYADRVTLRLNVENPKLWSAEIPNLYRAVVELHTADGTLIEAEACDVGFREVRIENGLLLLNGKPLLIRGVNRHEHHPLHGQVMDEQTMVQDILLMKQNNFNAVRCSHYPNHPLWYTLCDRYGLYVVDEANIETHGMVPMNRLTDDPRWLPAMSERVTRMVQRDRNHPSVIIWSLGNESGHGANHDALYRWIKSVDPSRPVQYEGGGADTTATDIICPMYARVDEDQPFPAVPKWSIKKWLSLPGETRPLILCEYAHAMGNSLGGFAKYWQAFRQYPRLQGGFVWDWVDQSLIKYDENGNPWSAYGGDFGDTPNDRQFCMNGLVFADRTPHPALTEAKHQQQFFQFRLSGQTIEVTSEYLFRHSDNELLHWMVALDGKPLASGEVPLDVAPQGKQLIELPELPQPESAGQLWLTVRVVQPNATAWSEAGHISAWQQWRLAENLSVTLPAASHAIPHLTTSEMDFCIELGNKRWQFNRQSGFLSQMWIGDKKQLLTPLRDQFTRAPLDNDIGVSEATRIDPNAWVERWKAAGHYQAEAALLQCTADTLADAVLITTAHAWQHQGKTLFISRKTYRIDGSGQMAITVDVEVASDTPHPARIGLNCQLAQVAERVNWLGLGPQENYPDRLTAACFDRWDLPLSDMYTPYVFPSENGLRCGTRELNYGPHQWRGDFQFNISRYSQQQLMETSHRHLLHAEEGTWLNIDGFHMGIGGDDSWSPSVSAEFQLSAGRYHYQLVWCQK

- Fluorescence of the microcapsules due to production of DiFMU (blue fluorescence) [5]: exhibiting blue fluorescence
Molecule: O=C(O)CCc1ccccc1 [hydrocinnamic acid]
- PTP1B inhibitor status / relative potency [4]: not a PTP1B inhibitor

- Exchange between microdroplets/compartments [3]: No exchange
Molecule: texas red

The remaining lines, values behind:

Molecule: O=C1OC2(c3ccc(O)cc3Oc3cc(O[C@@H]4O[C@H](CO)[C@H](O)[C@H](O)[C@H]4O)ccc32)c2ccccc21 (stereo partly drawn) [FMG, fluorescein mono-β-D-galactoside]
- Km ([1]; read-out: KM of FMG for LacZ, previously published value): 118 µM
- KM of FMG for LacZ determined in fused microcapsules, deviation from previously published value [2, 6]: ≤ 20%

Molecule: OCC1OC(SCCc2ccccc2)C(O)C(O)C1O [PETG, phenylethyl β-D-thiogalactopyranoside]
- Ki ([1]; read-out: Ki of PETG for LacZ, previously published value): 980 nM
- Ki of PETG for LacZ determined in fused microcapsules [2, 6]: within the range of the previously published value
- Mode of inhibition ([2]; Lineweaver-Burk plot, same y-intercept at different PETG concentrations): competitive

Molecule: O=C(O)CN(CC(=O)O)Cc1cc2c(cc1O)Oc1cc(O)c(CN(CC(=O)O)CC(=O)O)cc1C21OC(=O)c2ccccc21 [calcein]
- Exchange between microdroplets/compartments [3]: No exchange

Source: patent publication US9498759B2, “Compartmentalized screening by microfluidic control” (President and Fellows of Harvard College, priority 2004, dated 2016)
